The record followed here is ChEMBL document CHEMBL5678800 (Mol Cancer Ther, 2009).

In the assay the test system is Rh41. As to the kind of experiment: Antiproliferative activity against human Rh41 cells assessed as inhibition of cell growth incubated for 72 hrs by 3H-thymidine incorporation assay. The assay is classed as functional, cell-based. On the technique in general: Dividing cells build labelled thymidine or BrdU into new DNA.

For the compound `Cc1cc(Nc2cc(N3CCN(C)CC3)nc(Sc3ccc(NC(=O)C4CC4)cc3)n2)n[nH]1` [TOZASERTIB], the half-maximal inhibitory concentration (IC50) was determined as 93 nM.

Usually IC50 stands for the concentration at which inhibition is half-maximal.
